Measured values as given in US8232278B2 (Gilead Sciences, Inc., priority 2005, dated 2012).
Where two headings read alike, the source gives them in different places.

What was measured:
HCV replicon = experiment: Anti-HCV assay / replicon assay (EC50, luciferase read-out); assay type: cell-based, hepatitis C virus (HCV); details: for CC50/EC50: CC50/EC50 ratio (selectivity index)
Summary of the method: (§1)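 Huh-7 cells carrying an HCV replicon, 6000 per well, were exposed to 3-fold serial compound dilutions (0.5% DMSO final where DMSO was used) for 3 days at 37 °C. EC50 was read by luciferase after cell lysis; CC50 was taken as 50% inhibition of cell growth.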

[1] = system: wild-type HIV-1 strain IIIB; experiment: HIV-1 assay (XTT, HIV-induced cytopathic effect in MT-2 cells); assay type: cell-based; details: for inhibition at 5 µM: read-out: MT2 HIV % inhib. @ 5 μM
Procedure: This assay is based on the quantification of the HIV-induced cytopathic effect by a calorimetric detection of the viability of virus-infected cells in the presence or absence of tested inhibitors. The HIV-induced cell death was determined by using as a metabolic substrate 2,3-bis(2-methoxy-4-nitro-5-sulfophenyl)-2H-tetrazolium-5-carboxanilide (hereinafter referred as XTT) which was converted only by live cells into a product with specific absorption characteristics, as described by Weislow et al., J. Natl. Cancer Inst. (1989) 81:577.
The assay protocol for the determination of EC50 includes the following steps: • 1. MT-2 cells were maintained in RPMI-1640 medium supplemented with 10% fetal bovine serum, glutamine and antibiotics. • 2. Cells were infected by the wild-type HIV-1 strain IIIB (ABI, Columbia, Md.) for 3 hours at 37° C. using a multiplicity of infection (MOI) of 0.01. • 3. Prepare a set of solutions containing various concentrations of the tested inhibitor by making 5-fold serial dilutions in 96-well plate (100 μl/well). Alternatively, test single drug concentration (100 μl/well). Distribute the infected cells into the 96-well plate containing the inhibitors (20,000 cells in 100 μl/well). Include the following control samples, untreated infected cells (100% cell death) and control drug-treated infected cells (full protection). • 4. Incubate the cells for 5 days at 37° C. • 5. Prepare XTT solution (6 mL per assay plate) at a concentration of 2 mg/mL in a phosphate-buffered saline at pH 7.4. Heat the solution in water-bath for 10 minutes at 56° C. Add 50 μl of N-methylphenazonium methasulfate (5 μg/mL) per 6 mL of XTT solution. • 6. Remove 100 μl media from each well on the assay plate. • 7. Add 100 μl of the XTT substrate solution per well and incubate at 37° C. for 45 to 60 minutes in a CO2 incubator. • 8. Add 20 μl of 2% Triton X-100 per well to inactivate the virus. • 9. Read the absorbance at 450 nm with subtracting off the background absorbance at 650 nm. • 10. Plot the percentage absorbance relative to untreated control and estimate the EC50 value as drug concentration resulting in a 50% protection of the infected cells. Alternatively, calculate the percentage of inhibition for a fixed concentration, relative to the full protection with the control drug.
This assay has been performed on a set of compounds of the invention, and results are reported in table 8 below, also indicating the nature of substituents being present in positions 4 and 6 of the pyrido[3,2-d]pyrimidine derivatives of the invention (all being amino-substituted in position 2).

Huh-7 HCV replicon cells = experiment: CC50 assay in Huh-7 HCV replicon cells (CellTiter-Glo); assay type: cell-based, human; details: 3 days, 50% cytostatic concentration
Summary of the method: as §1

[2] = as above; assay type: cell-based, human; details: human, 50% cytostatic concentration
Summary of the method: as §1

[3] = Human immunodeficiency virus 1, MT2, 120 h, 5 μM, MT-2 cells infected with HIV-1 IIIB, 5 days, XTT
[4] = Hepatitis C virus, 72 h, human hepatoma Huh-7 cell line harbouring a HCV replicon, 3 days, luciferase luminescence, read-out: EC50

6-(3,4-difluoro-phenyl)-4-ethoxy-pyrido[3,2-d]pyrimidin-2-ylamine [Example 460]
CC50/EC50 (HCV replicon): 145 | EC50 (HCV replicon; human hepatoma Huh-7 cell line harbouring a HCV replicon, 3 days, luciferase luminescence, read-out: EC50): 0.113 µM | MT2 HIV % inhib. @ 5 μM ([1]; 5 μM, MT-2 cells infected with HIV-1 IIIB, 5 days, XTT): 11% | CC50 (Huh-7 HCV replicon cells): 16.3 µM

COc1ccc(-c2ccc3nc(N)nc(N4CCN(C)CC4)c3n2)cc1OC [Example 36, 2-amino-4-(N-methyl-piperazino)-6-(3,4-dimethoxyphenyl)-pyrido[3,2-d]pyrimidine]
inhibition at 5 µM [1, 3]: 3%

Nc1nc(OCc2ccccc2)c2nc(-c3cccc(F)c3)ccc2n1 [Example 210, 2-amino-4-benzyloxy-6-(m-fluorophenyl)-pyrido[3,2-d]pyrimidine]
CC50/EC50 (HCV replicon): 85 | EC50 (HCV replicon; Hepatitis C virus, Huh-7, 72 h): 0.22 µM | inhibition at 5 µM ([1]; Human immunodeficiency virus 1, IIIB, MT2, 120 h): 5% | CC50 at 3 days [2]: 18.8 µM

Nc1nc(OCc2ccccc2)c2nc(-c3ccc(F)cc3)ccc2n1 [Example 211, 2-amino-4-benzyloxy-6-(p-fluorophenyl)-pyrido[3,2-d]pyrimidine]
CC50/EC50 (HCV replicon): 179 | EC50 (HCV replicon; [4]): 0.21 µM | inhibition at 5 µM [1, 3]: 17% | CC50 at 3 days [2]: 37.5 µM

Nc1nc(N2CCOCC2)c2nc(-c3ccncc3)ccc2n1 [Example 226, 2-amino-4-morpholino-6-(4-pyridinyl)-pyrido[3,2-d]pyrimidine]
inhibition at 5 µM [1, 3]: 9%

CCOc1nc(N)nc2ccc(-c3ccc(F)cc3)nc12 [Example 281, 2-amino-4-ethoxy-6-(p-fluorophenyl)pyrido[3,2-d]-pyrimidine]
CC50/EC50 (HCV replicon): 856 | EC50 (HCV replicon; [4]): 0.059 µM | inhibition at 5 µM [1, 3]: 17% | CC50 (Huh-7 HCV replicon cells): 50.1 µM

CC(C)Oc1nc(N)nc2ccc(-c3ccc(F)cc3)nc12 [Example 286, 2-amino-4-isopropoxy-6-(p-fluorophenyl)-pyrido[3,2-d]pyrimidine]
CC50/EC50 (HCV replicon): 1113 | EC50 (HCV replicon; [4]): 0.045 µM | inhibition at 5 µM [1, 3]: 11% | CC50 (Huh-7 HCV replicon cells): 50.1 µM

CCOCCOc1nc(N)nc2ccc(-c3ccccc3F)nc12 [Example 302, 2-amino-4-(2-ethoxyethoxy)-6-(2-fluorophenyl)-pyrido[3,2-d]pyrimidine]
melting point: 163 °C

CCOCCOc1nc(N)nc2ccc(-c3cccc(F)c3)nc12 [Example 303, 2-amino-4-(2-ethoxyethoxy)-6-(3-fluorophenyl)-pyrido[3,2-d]pyrimidine]
CC50/EC50 (HCV replicon): 89 | EC50 (HCV replicon; [4]): 0.56 µM | inhibition at 5 µM [1, 3]: 8% | melting point: 165 °C | CC50 (Huh-7 HCV replicon cells): 50.1 µM

CCOCCOc1nc(N)nc2ccc(-c3ccc(F)cc3)nc12 [Example 304, 2-amino-4-(2-ethoxyethoxy)-6-(4-fluorophenyl)-pyrido[3,2-d]pyrimidine]
CC50/EC50 (HCV replicon): 852 | EC50 (HCV replicon; [4]): 0.044 µM | inhibition at 5 µM [1, 3]: 9% | melting point: 192 °C | CC50 at 3 days [2]: 37.5 µM

COCCOc1nc(N)nc2ccc(-c3ccc(F)cc3)nc12 [Example 305, 2-amino-4-(2-methoxyethoxy)-6-(4-fluorophenyl)-pyrido[3,2-d]pyrimidine]
CC50/EC50 (HCV replicon): 2863 | EC50 (HCV replicon; [4]): 0.018 µM | melting point: 204 °C | CC50 (Huh-7 HCV replicon cells): 50.1 µM

CC(=O)N1CCN(c2nc(N)nc3ccc(-c4ccc(F)cc4)nc23)CC1 [Example 320, 2-amino-4-(N-acetylpiperazino)-6-(4-fluorophenyl)-pyrido[3,2-d]pyrimidine]
CC50/EC50 (HCV replicon): 87 | EC50 (HCV replicon; [4]): 0.23 µM | inhibition at 5 µM [1, 3]: 12% | CC50 at 3 days [2]: 19.9 µM

CC(=O)Nc1ccc(-c2ccc3nc(N)nc(N4CCN(C(C)=O)CC4)c3n2)cc1 [Example 340, 2-amino-4-(N-acetylpiperazino)-6-(p-acetamidophenyl)-pyrido(3,2-d)pyrimidine]
inhibition at 5 µM [1, 3]: 4%

CCOc1nc(N)nc2ccc(-c3ccc(NC(C)=O)cc3)nc12 [Example 353, 2-amino-4-ethoxy-6-(p-acetamidophenyl)pyrido(3,2-d)pyrimidine]
CC50/EC50 (HCV replicon): 56 | EC50 (HCV replicon; [4]): 0.45 µM | inhibition at 5 µM [1, 3]: 4% | CC50 at 3 days [2]: 25.1 µM

Nc1ccc(-c2ccc3nc(N)nc(N4CCOCC4)c3n2)cc1 [Example 502, 6-(4-amino-phenyl)-4-morpholin-4-yl-pyrido[3,2-d]pyrimidin-2-ylamine]
CC50/EC50 (HCV replicon): 82 | EC50 (HCV replicon; Hepatitis C virus, Huh-7, 72 h): 0.099 µM | CC50 at 3 days [2]: 8.1 µM

COc1nc(N)nc2ccc(-c3ccc(F)cc3)nc12 [Example 504, 6-(4-fluoro-phenyl)-4-methoxy-pyrido[3,2-d]pyrimidin-2-ylamine]
CC50/EC50 (HCV replicon): 434 | EC50 (HCV replicon; [4]): 0.033 µM | CC50 at 3 days [2]: 14.3 µM

CCOc1nc(N)nc2ccc(-c3ccc(OC)nc3)nc12 [Example 546]
CC50/EC50 (HCV replicon): 68 | EC50 (HCV replicon; [4]): 0.37 µM | CC50 at 3 days [2]: 25.1 µM

CCOc1cccc(-c2ccc3nc(N)nc(OCC)c3n2)c1 [Example 549]
CC50/EC50 (HCV replicon): 53 | EC50 (HCV replicon; [4]): 0.47 µM | CC50 at 3 days [2]: 25.1 µM
